Source: patent publication US20140039044A1, “Hydroxylated Polymethoxyflavone Compositions” (WLLGEN, INC., priority 2006, published 2014)
Read-outs that look alike come from different tables or passages of the source.

Assays:
Format in all cases: cell-based, human
AGS cells [1] = experiment: Cell survival assay (antiproliferative IC50); conditions: Homo sapiens, AGS cells, read-out: Antiproliferative IC50
Procedure: (§1) Human colon carcinoma COLO205 and HT-29 cell lines (American Type Culture Collection (ATTC), Manassas, Va.) and the leukemia cell line HL-60 were maintained at 37° C. in 5% CO2 air in RPMI 1640 medium supplemented with 10% heat-inactivated fetal bovine serum (Gibco BRL, Grand Island, N.Y.), 100 units/mL penicillin, 100 μg/mL streptomycin and 2 mM 1-glutamine. The human gastric carcinoma AGS cell line (CCRC 60102), obtained from the Food Industry Research and Development Institute (Hsinchu, Taiwan), was maintained as described above, except that DMEM/F 12 was used as the medium rather than the RPMI 1640 medium. The human breast carcinoma MCF-7 cell line MCF-7 (ATTC) was cultured in RPMI 1640 medium supplemented with 5% fetal calf serum at 37° C. in a humidified atmosphere of 5% CO2 in air. The mouse macrophage cell line RAW 264.7 was maintained in RPMI 1640 supplemented with 100 U/ml penicillin, 100 μg/ml streptomycin, and 10% heat-inactivated fetal calf serum.
(§2) Cancer cells (2×10^5) were plated in 12-well Petri dishes. The next day, the medium was changed and treated with different concentration of the test compounds or compositions for 24 h. Where individual compounds were to be tested, stock solutions of the compound was prepared to contain 200 μM of the individual hydroxylated or non-hydroxylated PMF in dimethylsulfoxide (DMSO). Control cells were treated with DMSO to a final concentration of 0.05% (v/v). Depending on the objective of the particular experiment, cells were treating with test compound or composition for 1, 3 or 6 days. At the end of incubation, cells were harvested for cell count using a hemocytometer and measuring the cellular total nucleic acid content with the CyQUANT Cell Proliferation Assay Kit (Molecular Probes).
(§3) 1 N PMF and 6 N PMF compositions containing hydroxylated PMFs, prepared as described in Section 8.3 above, 70% PMF OPE and 5,6,7,8,3′,4′-hexamethoxyflavone (nobiletin) were tested for antiproliferative activity and apoptosis-inducing activity in HL-60, AGS and COLO205 cells as described in Section 8.4 above. Antiproliferative and apoptosis-inducing activities were derived as IC50 values and AC50, values, respectively, where AC50 is the concentration required for 50% apoptosis.
(§4) The PMF compounds were assayed in vitro for cell growth inhibition and for their ability to induce apoptosis in various human cancer cells, including HL-60, AGS, COLO 205, and HT-29 cells, using methods described in Section 8.4 above. Antiproliferative (IC50) and apoptosis-inducing activity (AC50) of PMFs in the HL-60, AGS, COLO 205, and HT-29 cells are reported in Table 9, where *P<0.05, **P<0.01 and ***P<0.001 indicate statistically significant differences from the control group.

COLO205 cells [2] = experiment: Cell survival assay (antiproliferative IC50); conditions: Homo sapiens, COLO 205, COLO205 cells, read-out: Antiproliferative IC50
Procedure: as §1, §2, §3, §4

HL-60 cells [3] = experiment: Cell cycle distribution by flow cytometry; conditions: 24 h
Procedure: (§5) The human cancer cells (2×10^5) were cultured in 60-mm Petri dishes and incubated for 24 h. After treated with test compounds for 24 h, the cells were then harvested, washed with PBS resuspended in 200 μL of PBS, and fixed in 800 μL of iced 100% ethanol at −20° C. After being left to stand overnight, the cell pellets were collected by centrifugation, resuspended in 1 mL of hypotonic buffer (0.5% Triton X-100 in PBS and 0.5 μg/mL RNase) and incubated at 37° C. for 30 min. Next, 1 mL of propidium iodide solution (50 μg/mL) was added, and the mixture was allowed to stand on ice for 30 min. Fluorescence emitted from the propidium iodide-DNA complex was quantitated after excitation of the fluorescent dye by FACScan cytometry (Becton Dickinson, San Jose, Calif.).
The effects of the hydrolyzed PMF-enriched compositions, nobiletin and 70% PMF OPE on cell cycle distribution were studied, following the procedures described in Section 8.4. Results for cell cycle distribution in HL-60 cells, COLO205 cells and AGS cells are provided in Table 5, Table 6 and Table 7, respectively. […] In HL-60 cells, G2/M arrest predominated in cells treated with 6N PMF concentrations ≧5 μM and with 1N PMF concentrations ≧25 μM.
(§6) Compounds A-K were evaluated in terms of their effects in arresting cell cycle progression by observing cell cycle phase distribution in cells treated with the compounds. Cells were treated with 5, 10, 25, 50, and 100 μM of one of compound A-K or DMSO (control) for 24 h and subjected to flow cytometric analysis after staining their DNA, as described above.

HT-29 cells [4] = experiment: Cell survival assay (antiproliferative IC50); conditions: Homo sapiens
Procedure: as §1, §2, §4

HT-29 cells [5] = experiment: Cell cycle distribution by flow cytometry; conditions: for Cell Cycle Distribution G0/G1 / Cell Cycle Distribution G2/M / Cell Cycle Distribution S: 24 h
Procedure: as §5, §6
Similar cell cycle phase distribution studies were performed in AGS, COLO205, and HT-29 cells in response to individual PMFs, with results reported in Tables 11, 12 and 13, respectively.

AGS cells [6] = experiment: Apoptotic ratio by propidium iodide flow cytometry (AC50); conditions: Homo sapiens, AGS cells
Procedure: as §5, §3, §4

COLO205 cells [7] = experiment: as above; conditions: Homo sapiens, COLO 205, COLO205 cells
Procedure: as §5, §3, §4

HL-60 cells [8] = experiment: as above; conditions: Homo sapiens, HL-60 cells
Procedure: as §5, §3, §4

HT-29 cells [9] = experiment: as above; conditions: Homo sapiens, read-out: Apoptosis-inducing AC50
Procedure: as §5, §4

[10] = Table 4, read-out: Apoptosis-inducing AC50 (concentration required for 50% apoptosis)
[11] = read-out: Apoptosis-inducing AC50

With `COc1ccc(-c2cc(=O)c3c(OC)c(OC)c(OC)c(OC)c3o2)cc1OC` [Compound A, 5,6,7,8,3′,4′-hexamethoxyflavone, reference compound] the IC50 (AGS cells [1]; Table 4) was > 100 µg/mL, the IC50 (AGS cells [1]) was > 100 µM and the IC50 (COLO205 cells [2]; Table 4) was 66.7 ± 0.73 µg/mL. For the same compound, the IC50 (COLO205 cells [2]) was 38 ± 1.4 µM, the “Cell Cycle Distribution G0/G1” value (HL-60 cells [3]; 5 μM, Table 5) was 45.81 ± 0.16 and the “Cell Cycle Distribution G2/M” value (HL-60 cells [3]; 5 μM, Table 5) was 0.02 ± 0.01. The “Cell Cycle Distribution S” value (HL-60 cells [3]; 5 μM, Table 5) was 54.29 ± 0.01, the “Cell Cycle Distribution G0/G1” value (HL-60 cells [3]; 5 μM, Table 10) was 41.42 ± 0.14 and the “Cell Cycle Distribution G2/M” value (HL-60 cells [3]; 5 μM, Table 10) was 8.15 ± 0.49. The “Cell Cycle Distribution S” value (HL-60 cells [3]; 5 μM, Table 10) was 50.73 ± 0.42, the “Cell Cycle Distribution G0/G1” value (HL-60 cells [3]; 10 μM, Table 5) was 53.84 ± 0.45 and the “Cell Cycle Distribution G2/M” value (HL-60 cells [3]; 10 μM, Table 5) was 5.73 ± 1.50. For the same compound, the “Cell Cycle Distribution S” value (HL-60 cells [3]; 10 μM, Table 5) was 40.44 ± 1.06, the “Cell Cycle Distribution G0/G1” value (HL-60 cells [3]; 10 μM, Table 10) was 50.36 ± 1.06 and the “Cell Cycle Distribution G2/M” value (HL-60 cells [3]; 10 μM, Table 10) was 2.75 ± 0.57. For the same compound, the “Cell Cycle Distribution S” value (HL-60 cells [3]; 10 μM, Table 10) was 46.88 ± 0.28, the “Cell Cycle Distribution G0/G1” value (HL-60 cells [3]; 25 μM, Table 5) was 61.96 ± 3.55 and the “Cell Cycle Distribution G2/M” value (HL-60 cells [3]; 25 μM, Table 5) was 5.93 ± 0.49. The “Cell Cycle Distribution S” value (HL-60 cells [3]; 25 μM, Table 5) was 32.12 ± 4.04, the “Cell Cycle Distribution G0/G1” value (HL-60 cells [3]; 25 μM, Table 10) was 66.18 ± 0.71 and the “Cell Cycle Distribution G2/M” value (HL-60 cells [3]; 25 μM, Table 10) was 2.77 ± 0.85. The “Cell Cycle Distribution S” value (HL-60 cells [3]; 25 μM, Table 10) was 31.06 ± 0.99, the “Cell Cycle Distribution G0/G1” value (HL-60 cells [3]; 50 μM, Table 5) was 62.37 ± 1.85 and the “Cell Cycle Distribution G2/M” value (HL-60 cells [3]; 50 μM, Table 5) was 6.44 ± 0.08. For the same compound, the “Cell Cycle Distribution S” value (HL-60 cells [3]; 50 μM, Table 5) was 31.20 ± 1.76, the “Cell Cycle Distribution G0/G1” value (HL-60 cells [3]; 50 μM, Table 10) was 64.40 ± 0.49 and the “Cell Cycle Distribution G2/M” value (HL-60 cells [3]; 50 μM, Table 10) was 7.67 ± 0.57. For the same compound, the “Cell Cycle Distribution S” value (HL-60 cells [3]; 50 μM, Table 10) was 27.93 ± 0.35, the “Cell Cycle Distribution G0/G1” value (HL-60 cells [3]; 100 μM, Table 5) was 65.00 ± 3.41 and the “Cell Cycle Distribution G2/M” value (HL-60 cells [3]; 100 μM, Table 5) was 4.18 ± 0.33. For the same compound, the “Cell Cycle Distribution S” value (HL-60 cells [3]; 100 μM, Table 5) was 30.81 ± 3.08, the “Cell Cycle Distribution G0/G1” value (HL-60 cells [3]; 100 μM, Table 10) was 62.05 ± 0.14 and the “Cell Cycle Distribution G2/M” value (HL-60 cells [3]; 100 μM, Table 10) was 7.35 ± 0.14. The “Cell Cycle Distribution S” value (HL-60 cells [3]; 100 μM, Table 10) was 30.60 ± 0.35, the “Cell cycle arrest, in words” value (HL-60 cells [3]; 25-100 μM) was “significant G1 arrest” and the IC50 (HT-29 cells [4]) was > 100 µM. The “Cell Cycle Distribution G0/G1” value (HT-29 cells [5]; 5 μM) was 63.67 ± 0.14, the “Cell Cycle Distribution G2/M” value (HT-29 cells [5]; 5 μM) was 8.22 ± 0.37 and the “Cell Cycle Distribution S” value (HT-29 cells [5]; 5 μM) was 28.12 ± 0.52. The “Cell Cycle Distribution G0/G1” value (HT-29 cells [5]; 10 μM) was 66.57 ± 0.66, the “Cell Cycle Distribution G2/M” value (HT-29 cells [5]; 10 μM) was 7.45 ± 0.28 and the “Cell Cycle Distribution S” value (HT-29 cells [5]; 10 μM) was 26.98 ± 0.94. For the same compound, the “Cell Cycle Distribution G0/G1” value (HT-29 cells [5]; 25 μM) was 69.67 ± 1.15, the “Cell Cycle Distribution G2/M” value (HT-29 cells [5]; 25 μM) was 7.58 ± 0.00 and the “Cell Cycle Distribution S” value (HT-29 cells [5]; 25 μM) was 22.76 ± 1.15. For the same compound, the “Cell Cycle Distribution G0/G1” value (HT-29 cells [5]; 50 μM) was 83.26 ± 0.46, the “Cell Cycle Distribution G2/M” value (HT-29 cells [5]; 50 μM) was 4.97 ± 0.67 and the “Cell Cycle Distribution S” value (HT-29 cells [5]; 50 μM) was 11.79 ± 1.13. The “Cell Cycle Distribution G0/G1” value (HT-29 cells [5]; 100 μM) was 89.49 ± 0.57, the “Cell Cycle Distribution G2/M” value (HT-29 cells [5]; 100 μM) was 5.60 ± 0.57 and the “Cell Cycle Distribution S” value (HT-29 cells [5]; 100 μM) was 4.92 ± 0.00. For the same compound, the “Cell cycle arrest, in words” value (HT-29 cells [5]; 5-100 μM, 24 h exposure) was “significant accumulation of cells in G1 phase”, the AC50 (AGS cells [6]; [10]) was > 100 µg/mL and the AC50 (AGS cells [6]; [11]) was > 100 µM. The AC50 (COLO205 cells [7]; [10]) was > 100 µg/mL, the AC50 (COLO205 cells [7]; [11]) was > 100 µM and the AC50 (HL-60 cells [8]; [10]) was > 100 µg/mL. The AC50 (HL-60 cells [8]; [11]) was > 100 µM and the AC50 (HT-29 cells [9]) was > 100 µM.
